Measurements: US20250375422A1, “METHOD FOR TREATING CANCERS” (Acura Nanomedicine Corporation, priority 2019, published 2025)

System: BxPC-3 cells
Test: MTT assay, cell viability of pancreatic cancer BxPC-3 cells
Format: cell-based, human
Experimental: Cell lines used in the present disclosure include human pancreatic cancer cell lines BxPC-3, Mia-Paca-2/R (gemcitabine resistant cell line), and Panc-1/R (gemcitabine resistant cell line); human liver cancer cell lines SK-Hep-1 and Hep 3B; and human brain glioblastoma cell line GBM8401, which is a TMZ-resistant cell line. Cells were cultured in Dulbecco's modified Eagle media (DMEM) supplemented with 10% heat inactivated fetal bovine serum (FBS), 50 units/mL penicillin G, 50 μg/mL streptomycin (pH 7.4), and the cells were maintained in humidified environment comprising 5% CO2/95% air at 37° C.
The absorbance of the solution at 570 nm was measured by spectrophotometer.

| Compound | viability at 5 µM (Homo sapiens, BXPC-3, MBZ (5 μM)) [%] | cell viability of BxPC-3 cells (HCQ (20 or 50 μM) alone) |
| --- | --- | --- |
| COC(=O)Nc1nc2ccc(C(=O)c3ccccc3)cc2[nH]1 [MBZ, mebendazole] | ~60 | – |
| CCN(CCO)CCCC(C)Nc1ccnc2cc(Cl)ccc12 (centres unmarked) [HCQ, hydroxychloroquine] | – | slightly and/or unaffected |
